The values below come from US8637537B2, “Serine/threonine kinase inhibitors” (Genentech, Inc., priority 2011, dated 2014).

The target in this assay is T1, human recombinant GST-PAK1-KD protein (Homo sapiens, UniProt Q13153).
T1 construct: residues #249-545 of human PAK1, UniProtKP/Swiss Q13153; His6 (N); made in house; host or cells: Sf9 insect cells, pAcGP67 baculovirus expression vector
The assay is described as follows: GST-PAK1-KD (kinase domain) biochemical assay, microfluidic mobility shift. The conditions noted are these: Table II, PAK1 Ki class; read-out: Ki.

T1 sequence (Q13153 249-545): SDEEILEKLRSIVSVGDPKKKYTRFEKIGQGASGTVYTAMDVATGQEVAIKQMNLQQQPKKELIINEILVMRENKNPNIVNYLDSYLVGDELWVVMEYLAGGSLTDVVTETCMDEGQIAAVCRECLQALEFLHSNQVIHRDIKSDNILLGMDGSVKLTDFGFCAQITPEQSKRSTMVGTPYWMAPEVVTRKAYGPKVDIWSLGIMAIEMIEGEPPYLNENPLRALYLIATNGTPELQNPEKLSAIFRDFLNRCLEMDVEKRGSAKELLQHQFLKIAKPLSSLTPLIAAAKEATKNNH

Regarding `CN(Cc1ccc2[nH]cnc2c1Cl)c1nccc(Nc2cc(C3(F)CC3)[nH]n2)n1` [II-55, N^2-((4-chloro-1H-benzo[d]imidazol-5-yl)methyl)-N^4-(5-(1-fluorocyclorpropyl)-1H-pyrazol-3-yl)-N^2-methylpyrimidine-2,4-diamine], the Ki – broadly, a dissociation constant, usually derived from enzyme kinetics or from competition with a known ligand – is below 50 nM. As to `Fc1cnc(NCc2cc(Cl)cc3[nH]ncc23)nc1Nc1cc(C2CC2)[nH]n1` [II-57, N^2-((6-chloro-1H-indazol-4-yl)methyl)-N^4-(5-cyclopropyl-1H-pyrazol-3-yl)-5-fluoropyrimidine-2,4-diamine], the inhibition constant (Ki) was below 50 nM.

As to `CN(Cc1cc(F)cc2[nH]ncc12)c1nccc(Nc2cc(C3CC3)[nH]n2)n1` [II-58, N^4-(5-cyclopropyl-1H-pyrazol-3-yl)-N^2-((6-fluoro-1H-indazol-4-yl)methyl)-N^2-methylpyrimidine-2,4-diamine], the inhibitory constant (Ki) was below 50 nM. Regarding `Fc1cc(CNc2nccc(Nc3cc([C@H]4C[C@@H]4F)[nH]n3)n2)c2cn[nH]c2c1` [II-60, N^2-((6-fluoro-1H-indazol-4-yl)methyl)-N^4-(5-((1R,2S)-2-fluorocyclopropyl)-1H-pyrazol-3-yl)pyrimidine-2,4-diamine], the Ki is below 50 nM. On to `C[C@H](Nc1nccc(Nc2cc(C3CC3)[nH]n2)n1)c1c(F)ccc2[nH]ncc12` [II-61, (S)-N^4-(5-cyclopropyl-1H-pyrazol-3-yl)-N^2-(1-(5-fluoro-1H-indazol-4-yl)ethyl)pyrimidine-2,4-diamine], for which the Ki was below 50 nM. As to `C[C@H](CN(Cc1cc(F)cc2[nH]ncc12)c1nccc(Nc2cc(C3CC3)[nH]n2)n1)N(C)C` [II-62, (R)-N^4-(5-cyclopropyl-1H-pyrazol-3-yl)-N^2-(2-(dimethylamino)propyl)-N^2-((6-fluoro-1H-indazol-4-yl)methyl)pyrimidine-2,4-diamine], the inhibitory constant (Ki) was below 50 nM. For the compound `CC(C)N(Cc1cc(F)cc2[nH]ncc12)c1nccc(Nc2cc(C3CC3)[nH]n2)n1` [II-63, N^4-(5-cyclopropyl-1H-pyrazol-3-yl)-N^2-((6-fluoro-1H-indazol-4-yl)methyl)-N^2-isopropylpyrimidine-2,4-diamine], the Ki was below 50 nM. Regarding `Fc1cc(CNc2nccc(Nc3cc([C@@H]4C[C@H]4F)[nH]n3)n2)c2cn[nH]c2c1` [II-64, N^2-((6-fluoro-1H-indazol-4-yl)methyl)-N^4-(5-((1S,2R)-2-fluorocyclopropyl)-1H-pyrazol-3-yl)pyrimidine-2,4-diamine], the inhibition constant (Ki) was below 50 nM. Regarding `Fc1cc(CNc2nccc(Nc3cc([C@@H]4CC4(F)F)[nH]n3)n2)c2cn[nH]c2c1` [II-65, (S)-N^4-(5-(2,2-difluorocyclopropyl)-1H-pyrazol-3-yl)-N^2-((6-fluoro-1H-indazol-4-yl)methyl)pyrimidine-2,4-diamine], the Ki is below 50 nM. As for `OCCN(Cc1cc(F)cc2[nH]ncc12)c1nccc(Nc2cc(C3CC3)[nH]n2)n1` [II-66, 2-((4-((5-cyclopropyl-1H-pyrazol-3-yl)amino)pyrimidin-2-yl)((6-fluoro-1H-indazol-4-yl)methyl)anino)ethanol], the Ki is below 50 nM. Turning to `C[C@@H](O)CN(Cc1cc(F)cc2[nH]ncc12)c1nccc(Nc2cc(C3CC3)[nH]n2)n1` [II-67, (R)-1-((4-((5-cyclopropyl-1H-pyrazol-3-yl)amino)pyrimidin-2-yl)((6-fluoro-1H-indazol-4-yl)methyl)amino)propan-2-ol], the Ki was below 50 nM. Turning to `CCc1cc(Nc2nc(N(C)Cc3ccc4[nH]cnc4c3Cl)ncc2F)n[nH]1` [II-69, N^2-((4-chloro-1H-benzo[d]imidazol-5-yl)methyl)-N^4-(5-ethyl-1H-pyrazol-3-yl)-5-fluoro-N^2-methylpyrimidine-2,4-diamine], the Ki was 250 to 1000 nM.

For `CCN(Cc1cc(F)cc2[nH]ncc12)c1nccc(Nc2cc(C3CC3)[nH]n2)n1` [II-70, N^4-(5-cyclopropyl-1H-pyrazol-3-yl)-N^2-ethyl-N^2-((6-fluoro-1H-indazol-4-yl)methyl)pyrimidine-2,4-diamine], the Ki is below 50 nM.

With `C[C@H](Nc1ncc(F)c(Nc2cc(C3CC3)[nH]n2)n1)c1cc(F)cc2[nH]ncc12` [II-71, (S)-N^4-(5-cyclopropyl-1H-pyrazol-3-yl)-5-fluoro-N^2-(1-(6-fluoro-1H-indazol-4-yl)ethyl)pyrimidine-2,4-diamine], the inhibition constant Ki was below 50 nM.

Take `C[C@H](O)CN(Cc1cc(F)cc2[nH]ncc12)c1nccc(Nc2cc(C3CC3)[nH]n2)n1` [II-72, (S)-1-((4-((5-cyclopropyl-1H-pyrazol-3-yl)amino)pyrimidin-2-yl)((6-fluoro-1H-indazol-4-yl)methyl)amino)propan-2-ol]: the Ki was below 50 nM. For `Fc1ccc2[nH]ncc2c1CNc1nccc(Nc2cc(C3CC3)[nH]n2)n1` [II-75, N^4-(5-cyclopropyl-1H-pyrazol-3-yl)-N^2-((5-fluoro-1H-indazol-4-yl)methyl)pyrimidine-2,4-diamine], the Ki is below 50 nM. Next, `Cc1cc(Nc2ccnc(N(C)Cc3ccc4[nH]cnc4c3Cl)n2)n[nH]1` [II-76, N^2-((4-chloro-1H-benzo[d]imidazol-5-yl)methyl)-N^2-methyl-N^4-(5-methyl-1H-pyrazol-3-yl)pyrimidine-2,4-diamine]: below 50 nM; `OCCN(Cc1cccc2[nH]ncc12)c1nccc(Nc2cc(C3CC3)[nH]n2)n1` [II-77, 2-(((1H-indazol-4-yl)methyl)(4-((5-cyclopropyl-1H-pyrazol-3-yl)amino)pyrimidin-2-yl)amino)ethanol]: below 50 nM. Regarding `c1cc(Nc2cc(C3CC3)[nH]n2)nc(N(Cc2ccc3[nH]cnc3c2)C2CC2)n1` [II-78, N^2-((1H-benzo[d]imidazol-5-yl)methyl)-N^2-cyclopropyl-N^4-(5-cyclopropyl-1H-pyrazol-3-yl)pyrimidine-2,4-diamine], the Ki was below 50 nM. Next, `C[C@H](c1cc(Nc2ccnc(NCc3ccc4[nH]cnc4c3Cl)n2)n[nH]1)C1CC1` [II-79, (S)-N^2-((4-chloro-1H-benzo[d]imidazol-5-yl)methyl)-N^4-(5-(1-cyclopropylethyl)-1H-pyrazol-3-yl)pyrimidine-2,4-diamine]: below 50 nM; `COC[C@@H](C)c1cc(Nc2ccnc(N(C)Cc3ccc4[nH]cnc4c3Cl)n2)n[nH]1` [II-80, (S)-N^2-((4-chloro-1H-benzo[d]imidazol-5-yl)methyl)-N^4-(5-(1-methoxypropan-2-yl)-1H-pyrazol-3-yl)-N^2-methylpyrimidine-2,4-diamine]: below 50 nM; `Fc1cc(CNc2nccc(Nc3cc([C@H]4C[C@@H]4F)[nH]n3)n2)c2cc[nH]c2c1` [II-82, N^2-((6-fluoro-1H-indol-4-yl)methyl)-N^4-(5-((1R,2S)-2-fluorocyclopropyl)-1H-pyrazol-3-yl)pyrimidine-2,4-diamine]: below 50 nM. With `CN(C)CCN(Cc1cccc2[nH]ccc12)c1nccc(Nc2cc([C@@H]3C[C@H]3F)[nH]n2)n1` [II-83, N^2-((1H-indol-4-yl)methyl)-N^2-(2-(dimethylamino)ethyl)-N^4-(5-((1S,2R)-2-fluorocyclopropyl)-1H-pyrazol-3-yl)pyrimidine-2,4-diamine], the Ki was below 50 nM. Take `CN(Cc1cccc2[nH]ncc12)c1nccc(Nc2cc(C3CC3)[nH]n2)n1` [II-84, N^2-((1H-indazol-4-yl)methyl)-N^4-(5-cyclopropyl-1H-pyrazol-3-yl)-N^2-methylpyrimidine-2,4-diamine]: the Ki was below 50 nM.
